According to patent US11492386B2, “Parathyroid hormone-anti-RANKL antibody fusion compounds” (Eli Lilly and Company, priority 2016, dated 2022):

System: orchidectomized murine model
Experiment: In vivo efficacy (BMD and BMC by qCT) in orchidectomized murine model
Design: species or system mice
Settings: 5 μg/kg daily sc, two weeks
Description: Effects on bone mass density and bone mineral content, in vivo, are assessed using an orchidectomized murine model. Sixteen week old […] C57/B6 mice (Harlan, Indianapolis, Ind.) are orchidectomized (or vehicle control group, n=6) and maintained on a 12 hour light/dark cycle at 22° C. with ad lib access to food (TD 2014 with 0.72% Ca and 0.61% P, Vit. D 0.99 IU/g, Teklad, Madison, Wis.) and water. Osteopenia is established in the orchidectomized mice by allowing mice to lose bone mass for a six-week period.
Following a six-week osteopenia-establishing period, mice are divided into treatment groups and a vehicle PBS control group. […]
Bone mass density (BMD) of distal femur and bone mineral content (BMC) of lumbar vertebra are assessed by quantitative computed tomography (qCT) using Aloka LaTheta LTC-100 model CT scanner. […]

In the case of `CC[C@H](C)[C@H](NC(=O)[C@H](CCC(=O)O)NC(=O)[C@H](CO)NC(=O)[C@@H](NC(=O)[C@@H](N)CO)C(C)C)C(=O)N[C@@H](CCC(N)=O)C(=O)N[C@@H](CC(C)C)C(=O)N[C@@H](CCSC)C(=O)N[C@@H](Cc1c[nH]cn1)C(=O)N[C@@H](CC(N)=O)C(=O)N[C@@H](CC(C)C)C(=O)NCC(=O)N[C@@H](CCCCN)C(=O)N[C@@H](Cc1c[nH]cn1)C(=O)N[C@@H](CC(C)C)C(=O)N[C@@H](CC(N)=O)C(=O)N[C@@H](CO)C(=O)N[C@@H](CCSC)C(=O)N[C@@H](CCC(=O)O)C(=O)N[C@@H](CCCNC(=N)N)C(=O)N[C@H](C(=O)N[C@@H](CCC(=O)O)C(=O)N[C@@H](Cc1c[nH]c2ccccc12)C(=O)N[C@@H](CC(C)C)C(=O)N[C@@H](CCCNC(=N)N)C(=O)N[C@@H](CCCCN)C(=O)N[C@@H](CCCCN)C(=O)N[C@@H](CC(C)C)C(=O)N[C@@H](CCC(N)=O)C(=O)N[C@@H](CC(=O)O)C(=O)N[C@H](C(=O)N[C@@H](Cc1c[nH]cn1)C(=O)N[C@@H](CC(N)=O)C(=O)N[C@@H](Cc1ccccc1)C(=O)N[C@H](C(=O)N[C@@H](C)C(=O)N[C@@H](CC(C)C)C(=O)NCC(=O)O)C(C)C)C(C)C)C(C)C` [PTH Peptide, reference compound], the “Distal-Femur (% BMD change)” value is reported as 16% and the “Lumbar Vertebra (% BMC change)” value is reported as 1%.
